Values after ≈ are worked out from the molar mass of the structure shown. Values joined by “and” are separate entries in the source; they are usually repeats but may differ in a detail not shown here. Equal values may be shown once. Read-outs that look alike come from different tables or passages of the source. Marks after values point to notes of the source that are not given here.
Legend:
[1] = target: T1, xanthine oxidase (Homo sapiens, UniProt P47989); conditions: modified xanthine oxidase inhibition methods; ref [33]; cited from earlier work
[2] = target: T2, α-glucosidase (Saccharomyces cerevisiae, UniProt P53341); experiment: α-Glucosidase inhibition (AGI), pNPG substrate; assay type: biochemical
T2 construct: purchased Sigma-Aldrich
Description: The α-glucosidase inhibitory activity of isolated fractions was assayed using a synthetic substrate p-nitrophenyl-α-D-glucopyranoside (pNPG). […] (Table 5).
The anti-α-glucosidase activity of C1–C3 was evaluated using a method described previously with some modifications. In brief, an amount of 20 µL methanolic stock solution of isolated compounds was pre-mixed with an equal volume of 0.1 M potassium phosphate buffer (pH 7) and 40 µL of α-glucosidase (from Saccharomyces cerevisiae, Sigma-Aldrich, St. Louis, MO, USA) enzyme solution (0.5 U/mL in 0.1 M potassium phosphate buffer, pH 7). After 6 min incubation at 25 °C, a 20 µL aliquot of 5 mM p-nitrophenyl-α-D-glucopyranoside (pNPG) substrate (in 0.1 M potassium phosphate buffer, pH 7) was added to each reaction and the mixture was incubated for another 8 min. The reaction was terminated by adding 100 µL of 0.2 M Na2CO3, and absorbance was recorded at 405 nm.

[3] = DPPH radical scavenging assay; conditions: for IC50: value in brackets
Description: (§1) Antioxidant activity of the isolated compounds was determined using DPPH (2,2-diphenyl-1-picrylhydrazyl) radical scavenging assay, ABTS (2,2′-azinobis-(3-ethylbenzothiazoline-6-sulfonic acid)) radical cation decolorization assay, ferric reducing antioxidant power test (FRAP) following previous study [37, 38, 39] with slight modifications.

[4] = target: T1, xanthine oxidase; experiment: Xanthine oxidase inhibition (XOD), spectrophotometric; assay type: biochemical
[5] = ferric reducing antioxidant power test (FRAP); conditions: for IC50: value in brackets
Description: as §1

[6] = ABTS radical cation decolorization assay; conditions: ABTS radical scavenging; for IC50: value in brackets
Description: as §1

T1 sequence (P47989 whole entry, species assumed): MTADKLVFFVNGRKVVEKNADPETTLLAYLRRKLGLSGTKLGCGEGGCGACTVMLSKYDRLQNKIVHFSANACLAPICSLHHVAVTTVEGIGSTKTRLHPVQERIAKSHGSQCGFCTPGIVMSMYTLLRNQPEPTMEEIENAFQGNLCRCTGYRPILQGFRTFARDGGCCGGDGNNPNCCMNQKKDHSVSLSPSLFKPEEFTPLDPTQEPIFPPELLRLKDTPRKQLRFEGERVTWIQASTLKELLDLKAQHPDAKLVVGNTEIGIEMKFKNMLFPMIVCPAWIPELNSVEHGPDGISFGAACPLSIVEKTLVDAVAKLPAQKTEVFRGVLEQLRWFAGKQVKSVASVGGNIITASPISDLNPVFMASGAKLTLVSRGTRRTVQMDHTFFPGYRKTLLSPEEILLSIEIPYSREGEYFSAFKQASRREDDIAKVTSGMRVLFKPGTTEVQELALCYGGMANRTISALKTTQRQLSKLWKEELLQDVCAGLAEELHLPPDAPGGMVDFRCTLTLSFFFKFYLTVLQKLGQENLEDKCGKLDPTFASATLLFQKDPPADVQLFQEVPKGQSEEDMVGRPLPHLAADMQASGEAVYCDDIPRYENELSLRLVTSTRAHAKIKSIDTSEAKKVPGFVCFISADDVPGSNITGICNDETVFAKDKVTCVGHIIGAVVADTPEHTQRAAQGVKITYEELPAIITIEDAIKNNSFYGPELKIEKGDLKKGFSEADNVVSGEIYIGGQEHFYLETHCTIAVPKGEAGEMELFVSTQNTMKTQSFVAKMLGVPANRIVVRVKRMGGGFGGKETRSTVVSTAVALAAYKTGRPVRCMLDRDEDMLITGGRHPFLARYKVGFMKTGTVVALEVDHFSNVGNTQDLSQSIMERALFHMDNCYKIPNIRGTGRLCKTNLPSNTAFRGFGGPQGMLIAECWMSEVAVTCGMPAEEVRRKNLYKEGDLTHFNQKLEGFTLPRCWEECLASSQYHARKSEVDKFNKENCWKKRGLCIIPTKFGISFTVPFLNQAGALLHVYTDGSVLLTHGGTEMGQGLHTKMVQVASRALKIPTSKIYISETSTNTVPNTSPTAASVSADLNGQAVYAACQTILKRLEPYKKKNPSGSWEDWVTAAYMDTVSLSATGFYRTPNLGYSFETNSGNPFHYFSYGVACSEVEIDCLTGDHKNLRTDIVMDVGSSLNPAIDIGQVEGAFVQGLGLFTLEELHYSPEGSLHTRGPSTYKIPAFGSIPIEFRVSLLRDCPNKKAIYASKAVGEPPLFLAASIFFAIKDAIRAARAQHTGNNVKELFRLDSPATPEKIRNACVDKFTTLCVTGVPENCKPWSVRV
T2 sequence (P53341 whole entry): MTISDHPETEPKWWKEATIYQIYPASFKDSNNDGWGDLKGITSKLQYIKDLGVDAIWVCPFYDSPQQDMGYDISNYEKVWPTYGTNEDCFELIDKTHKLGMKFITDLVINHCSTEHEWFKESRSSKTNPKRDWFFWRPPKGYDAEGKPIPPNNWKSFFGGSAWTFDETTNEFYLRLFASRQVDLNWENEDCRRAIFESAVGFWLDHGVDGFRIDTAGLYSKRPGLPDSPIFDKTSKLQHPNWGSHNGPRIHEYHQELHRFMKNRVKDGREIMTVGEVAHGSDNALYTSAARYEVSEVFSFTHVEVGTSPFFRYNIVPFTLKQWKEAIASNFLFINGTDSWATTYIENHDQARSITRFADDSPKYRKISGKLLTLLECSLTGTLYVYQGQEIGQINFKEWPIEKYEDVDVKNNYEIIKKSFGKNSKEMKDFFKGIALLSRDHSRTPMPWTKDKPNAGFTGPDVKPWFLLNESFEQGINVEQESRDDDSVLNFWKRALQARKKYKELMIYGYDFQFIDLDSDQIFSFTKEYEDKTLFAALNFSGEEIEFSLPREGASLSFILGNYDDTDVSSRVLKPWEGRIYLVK

SMILES | IC50 [1] [µM] | IC50 ([2]; pNPG) [µM] | IC50 ([2]; value in brackets) [µM] | IC50 DPPH [3] | IC50 DPPH ([3]; listed as 2) [µg/mL] | IC50 [3] [µM] | IC50 [4] [µM] | IC50 ([4]; value in brackets) [µM] | IC50 FRAP [5] | IC50 [5] [µM] | IC50 ABTS [6] | IC50 [6] [µM] | IC50 DPPH ([3]; listed as 1) [µg/mL]
COc1c(O)cc(O)c2c(=O)cc(-c3ccccc3)oc12 [wogonin] | 157 | – | – | – | – | – | – | – | – | – | – | – | –
O=C(O)[C@H]1O[C@@H](Oc2cc3oc(-c4ccccc4)cc(=O)c3c(O)c2O)[C@H](O)[C@@H](O)[C@@H]1O [baicalin] | 215 | – | – | – | – | – | – | – | – | – | – | – | –
COc1cc(O)c2c(c1)C(=O)c1cc(C)cc(O)c1C2=O [Fraction C3, 1,8-dihydroxy-3-methoxy-6-methylanthraquinone] | – | 66.5 | 66.5 | 12.0 ± 0.2^c µg/mL | 12.1 (≈ 42.6 µM) | 42.3 | 158 | 158 | 408.6 ± 6.8^b µg/mL | 1440 | 44.8 ± 0.8^b µg/mL | 158 | –
Cc1cc(O)c2c(c1)C(=O)c1cccc(O)c1C2=O [Fraction C2, 1,8-dihydroxy-3-methylanthraquinone] | – | 79.1 | 79.1 | 10.0 ± 0.3^c µg/mL | – | 39.4 | 143 | 143 | 312.6 ± 6.3^c µg/mL | 1230 | 34.3 ± 0.7^c µg/mL | 135 | 9.8 (≈ 38.5 µM)
Cc1cc(C(C)(C)C)c(O)c(C(C)(C)C)c1 [BHT, reference compound] | – | – | – | 19.4 µg/mL and 19.2 ± 0.3^b µg/mL | – | 87.1 | – | – | 422.1 ± 1.1^b µg/mL | 1920 | 46.9 ± 0.9^b µg/mL | 213 | –

Source: paper PMC6864818, “Antioxidant, Xanthine Oxidase, α-Amylase and α-Glucosidase Inhibitory Activities of Bioactive Compounds from Rumex crispus L. Root” (Molecules, 2019)
